What all share (format): cell-based, human
One assay concerns BRCA2-null LNCaP cells. Briefly: MTT cell growth of BRCA2 CRISPR-edited LNCaP cells with PARP inhibitors or cisplatin. The following applies: BRCA2 knockout LNCaP vs control gRNA (scr) cells; complete medium, 6 days (FIG. 7C). The protocol:
Cells infected with scrambled (scr) gRNA were used as control. Equal amount of proteins was loaded in WedgeWell 6% gel and western blot was performed. ˜400 kDa BRCA2 band is indicated by arrow. GAPDH served as loading controls for western blot and qPCR. […] Genotypes are detected by PCR amplification followed by being treated with T7 endonuclease. Wt and mutant BRCA2 are indicated by red and green arrows, respectively. […] Equivalent volume of DMSO was used as placebo treatment. Cell growth was measured by MTT assay (see Example 1); SD, P-values determined by Student's t-test. *P<0.05, **P<0.01, ***P<0.001. FIGS. 7D-7E show the growth curve (FIG. 7D) and a bar graph (FIG. 7E) representing the cell growth of LNCaP BRCA2 CRISPR-edited and non-targeting control gRNA (scr) infected cells in complete medium supplemented with enzalutamide (ENZ; indicated concentration) for 7 days or charcoal-stripped medium (CSS) for 5 days, respectively. Equivalent volume of DMSO was used as placebo treatment. Cell growth was measured by crystal violet staining assay (see Example 1) (±SD); P-values determined by Student's t-test. […] Equivalent volume of DMSO was used as placebo treatment. Cell growth was measured by MTT assay (see Example 1) (±SD); P-values determined by Student's t-test. […] Total RNA was isolated, and BRCA2 mRNA was analyzed by qPCR. […] Cell growth was measured by MTT assay; SD, P-values determined by Student's t-test.
(§1) To generate BRCA2 knockout RWPE1 cells, BRCA2 gRNA2 was cloned into LentiCRISPRv2-GFP backbone which constitutively expresses Cas9 and GFP. Lentiviral infected cells were selected by FACS sorting for GFP positive cells (twice) and analyzed by western blot. […] Loss of BRCA2 in the pooled populations of LNCaP cells was analyzed by western blot using BRCA2-specific antibodies and this pooled population of cells was used for the following experiments. […]
Cell Proliferation Assay by MTT, BrdU and Crystal Violet. […] MTT crystals were dissolved in isopropanol and absorbance was measured in a BioTek plate reader at […] and represented graphically.

In assay [1] the test system is LNCaP-BRCA2-RB1 cells. Nature of the assay: MTT cell growth with PARP inhibitors. The following applies: LNCaP-BRCA2-RB1 vs BRCA2-null LNCaP; olaparib 3 μM, talazoparib 0.005 μM (FIG. 2E). The protocol: (§2) Scr-CRISPR and BRCA2-CRISPR2 cells were also transfected with non-targeting shRNA (scr-Sh) for control of shRNA. RHoGDI served as the loading control. […] Equivalent volume of DMSO was used as placebo treatment. Cell growth was measured by MTT assay; SD, p-values were determined by Student's t-test. […] FIG. 2C (2nd and 3rd rows) show the immunofluorescence (400× magnification) of F-actin filament stained with phalloidin in indicated CRISPR/shRNA-infected LNCaP cells. Nuclei were stained with DAPI (blue). […] 5×10^3 indicated cells were plated on the top of Boyden chamber (see Example 1) in serum-free media; 10% serum in the bottom chamber was used as chemo-attractant. After 48 hours, cells in the lower side of the chamber were fixed, stained, and photographed (100× magnification). […] Nuclei were stained with DAPI (blue). […] The graphs show cell growth measured by MTT assay (±SD); P-values determined by Student's t-test. […] RNA sequencing was analyzed by Partek.
(§3) To generate BRCA2-RB1 knockout-knockdown LNCaP cells, parental LNCaP cells were first infected with lentivirus containing BRCA2 gRNA or scr gRNA. Pooled population of the stable cells were established by puromycin selection and analyzed by western blot and qPCR. BRCA2-knockout or scr LNCaP cells were infected with lentivirus containing RB1 shRNA followed by hygromycin selection. BRCA2-knockout or scr (gRNA) LNCaP cells also infected with lentiviral non-targeting shRNA (scr-shRNA) were used as control. Cells within 4-10 passages after stable selection were used for the following experiments.
(§4) Cell Proliferation Assay by MTT, BrdU and Crystal Violet. For MTT assay, cells were plated at 2.5×10^3 per well in 96-well plates in complete media (10% FBS) or media supplemented with 10% charcoal-stripped serum. Cells were either treated with DMSO or with indicated inhibitors. After indicated times, cells were incubated in 0.5 mg/mL MTT (Invitrogen) for 1 hour at 37° C. MTT crystals were dissolved in isopropanol and absorbance was measured in a BioTek plate reader at […] and represented graphically.

In assay [2] the test system is RB1 knockdown LNCaP cells. Nature of the assay: MTT cell growth with PARP inhibitors. As to conditions: RB1 knockdown vs control LNCaP cells; olaparib 3 μM, talazoparib 0.005 μM (FIG. 2E). How it is done:
as §2, §3, §4

Another assay relates to 22RV1 cells. Briefly: MTT cell growth with PARPi or cisplatin. As to conditions: 22RV1, BRCA2 T3033Nfs*11, RB1-wt; cisplatin 500 nM, talazoparib 5 nM, 6 days (FIG. 11D). The protocol:
as §4, with “The ploidy of each cell line is indicated. […] Equivalent volume of DMSO was used as placebo treatment. Cell growth was measured by MTT assay (see Example 1); SD, each point indicates the MTT count of each well of 96-well plate, P-values determined by Student's t-test. **P<0.01, ****P<0.0001. […] Cell Proliferation” for “Cell Proliferation”

In another assay the test system is PC3M cells. Nature of the assay: MTT cell growth with PARPi or cisplatin. The following applies: talazoparib 5 nM, 6 days, P<0.0001 (FIG. 11D). How it is done: as §4, with “The ploidy of each cell line is indicated. […] Equivalent volume of DMSO was used as placebo treatment. Cell growth was measured by MTT assay (see Example 1); SD, each point indicates the MTT count of each well of 96-well plate, P-values determined by Student's t-test. **P<0.01, ****P<0.0001. […] Cell Proliferation” for “Cell Proliferation”

The next assay concerns MSK-PCa1 organoid. Briefly: MTT growth of mCRPC organoids with PARPi. As to conditions: compared to benign organoid; 3 days (FIG. 6E).
Excerpt: (§5) Near-diploid benign prostate organoid is used as a control. […] GAPDH served as the loading control. […] The graphs show cell growth measured by MTT assay (±SD); P-trends determined by 2-way ANOVA.
(§6) Cell Culture. Human prostate cancer cells LNCaP, 22RV1, DU145, PC3, and VCaP were obtained from ATCC (Manassas, VA). LNCaP-C42 cells were obtained from VitroMed (Burlington, NC). The LNCaP-Abl cell line, E006AA-T cells, PC3M LAPC4 cell line were obtained. These cells were maintained in 10% FBS (LNCaP, LNCaP-C42, LAPC4, VCaP, 22RV1, DU145, PC3, PC3M, and E006AA) or 10% charcoal-stripped serum (LNCaP-Abl) supplemented with 2 mM of L-glutamine and 1×antibiotic/antimycotic (Gemini Bio-Products, Sacramento, CA) at 37° C. in 5% CO2. Human prostate epithelial cell RWPE1 was obtained from ATCC and cultured in keratinocyte serum-free medium (Thermo Fisher Scientific, Waltham, MA) at 37° C. in 5% CO2. Cells were authenticated by human short tandem repeat profiling at the MSK Integrated Genomics Operation Core. Patient-derived human prostate cancer organoids were cultured as described. Gao et al., Cell 159:176-87 (2014).
as §4

A further assay deals with MSK-PCa3 organoid. Nature of the assay: MTT growth of mCRPC organoids with PARPi. The following applies: compared to benign organoid; 3 days (FIG. 6E).
Excerpt: as §5, §6, §4

Assay [3] relates to LNCaP-BRCA2-RB1 cells. Briefly: qPCR of EMT transcription factors after androgen (R1881) treatment. The following applies: 1 nM R1881, 48 hours in CSS (FIG. 3I). The protocol: Scr-CRISPR and BRCA2-CRISPR2 cells were also transfected with non-targeting shRNA (scr-Sh) for control of shRNA. GAPDH served as the loading control. […] Nuclei were stained with DAPI (blue). […] Control cells were transfected with empty vector. […] GAPDH served as the loading control. […] LNCaP cells were used as control. GAPDH served as the loading control. […] Nuclei were stained with DAPI (blue). […] Equivalent volume of DMSO was used as placebo treatment. Cell growth was measured by MTT assay; SD, P-values determined by Student's t-test. […] LNCaP-BRCA2-RB1 or control cells were incubated in charcoal-stripped medium (CSS) for 24 hours followed by treatment with 1 nM R1881 for another 48 hours (in CSS). […] Expression of the indicated genes normalized with untreated control and GAPDH. […] Scrambled-SMARTpool siRNA transfected LNCaP cells were used as control. 2.5×10^3 indicated cells (72 hours after indicated siRNA transfection) were plated on the top of Boyden chamber in serum-free media; 10% serum in the bottom chamber was used as chemo-attractant. After 24 hours, cells in the lower side of the chamber were fixed, stained, photographed in 100× magnification (top panel), and counted and represented in the form of the bar graph (bottom panel). P-values were determined by Student's t-test.
RNA Extraction and qPCR. […] All quantifications were normalized to endogenous GAPDH.
(Quantitative PCR measures a nucleic acid by following its amplification.)

In the next assay the test system is BRCA2-null RWPE1 cells. Briefly: MTT cell growth with olaparib. As to conditions: BRCA2-null vs control RWPE1; 3 μM and 10 μM olaparib, 7 days (FIG. 3G). How it is done: Scr-CRISPR and BRCA2-CRISPR2 cells were also transfected with non-targeting shRNA (scr-Sh) for control of shRNA. GAPDH served as the loading control. […] Nuclei were stained with DAPI (blue). […] Control cells were transfected with empty vector. […] GAPDH served as the loading control. […] LNCaP cells were used as control. GAPDH served as the loading control. […] Nuclei were stained with DAPI (blue). […] Equivalent volume of DMSO was used as placebo treatment. Cell growth was measured by MTT assay; SD, P-values determined by Student's t-test. […] LNCaP-BRCA2-RB1 or control cells were incubated in charcoal-stripped medium (CSS) for 24 hours followed by treatment with 1 nM R1881 for another 48 hours (in CSS). […] After 24 hours, cells in the lower side of the chamber were fixed, stained, photographed in 100× magnification (top panel), and counted and represented in the form of the bar graph (bottom panel). P-values were determined by Student's t-test.
as §1

Turning to `Cn1ncnc1[C@H]1c2n[nH]c(=O)c3cc(F)cc(c23)N[C@@H]1c1ccc(F)cc1` [talazoparib], the “sensitivity (cell growth, MTT)” value in the assay on BRCA2-null LNCaP cells was “more sensitivity”; with 22RV1 cells, “modest sensitivity”. In the assay on LNCaP-BRCA2-RB1 cells [1], the “cell growth inhibition (MTT)” value was “more cell growth inhibition”. In assay [2], the “inhibitory effect on cell growth (MTT)” value is “could not be detected”. The “growth inhibition compared to olaparib (2.5 μM)” value in the assay on PC3M cells is reported as “more growth inhibition”. The “organoid growth (MTT)” value in the assay with MSK-PCa1 organoid and in the assay on MSK-PCa3 organoid was “growth reduction” in each case.
Take `C[C@]1(O)CC[C@H]2[C@@H]3CCC4=CC(=O)CCC4=C3C=C[C@@]21C` [R1881]: the “SLUG mRNA (qPCR)” value in the assay on LNCaP-BRCA2-RB1 cells [3] is recorded as “significantly increased”.
For the compound `O=C(c1cc(Cc2n[nH]c(=O)c3ccccc23)ccc1F)N1CCN(C(=O)C2CC2)CC1` [olaparib], in the assay on LNCaP-BRCA2-RB1 cells [1], the “cell growth inhibition (MTT)” value is “more cell growth inhibition”. The “inhibitory effect on cell growth (MTT)” value in [2] was “could not be detected”. Besides, the “sensitivity (cell growth, MTT)” value in the assay on BRCA2-null RWPE1 cells is “enhanced sensitivity”. Further, the “organoid growth (MTT)” value in the assay with MSK-PCa1 organoid and in the assay with MSK-PCa3 organoid was “growth reduction” in each case.
